Experimental data as given in patent US4220645A, “Chromone derivatives” (Thea (Therapeutique et Applications) SA, priority 1977, dated 1980).
Counter-ions that a name gives are not always drawn.

What was measured:
[1] = system: rhythm disorders induced by aconitine; experiment: Anti-arrhythmic activity in the guinea-pig (aconitine-induced arrhythmia); assay type: in vivo; conditions: for Average time for arrhythmia to appear, PES (polymorphic extrasystoles) / Average time for arrhythmia to appear, VT (ventricular tachycardia) / Average time for arrhythmia to appear, MTV (multifocal ventricular tachycardia) / Average time for arrhythmia to appear, VTB (ventricular tachycardia bursts): 6 guinea pigs; for Average time for arrhythmia to appear, PES (polymorphic extrasystoles): controls 27 ± 2; for Average time for arrhythmia to appear, VT (ventricular tachycardia): controls 30 ± 2; for Average time for arrhythmia to appear, MTV (multifocal ventricular tachycardia): controls 41 ± 2; for Average time for arrhythmia to appear, VTB (ventricular tachycardia bursts): controls 63 ± 4; for Delay of rhythm disorders induced by aconitine: I.V., guinea-pig, compared with amiodarone
Method: Anti-arrhythmic activity in the guinea-pig
Reference: Experimental evaluation of anti-arrhythmic drugs in the guinea-pig. GUIDICELLI, WITCHITZ, LARNO, BOISSIER, Biomedecine, 1973, 19, 308-313.
Male and female guinea-pigs were used, weighing from 600 to 800 g and anesthetised with urethane (1.25 g/kg/I.P.), tracheotomised and kept under artificial respiration. The electrocardiogram (D2) was recorded.
Arrhythmia was produced by perfusion at the rate of 0.5 ml/min of an aqueous solution of aconitine nitrate (0.15 mg/ml) in the jugular vein. Measurements were made of the time before the following rhythm disturbances appeared:
Polymorphic extrasystoles (PES),
Ventricular tachycardia (VT),
Multifocal ventricular tachycardia (MVT),
Ventricular tachycardia bursts (VTB),
that is a sequence of ventricular complexes of fixed frequency but with regular increasing and decreasing amplitude.
The following substances were used:
Amiodarone hydrochloride for comparison.
The substances were intravenously injected immediately before perfusion with aconitine had started.

[2] = Acute toxicity in the mouse; assay type: in vivo; conditions: female Swiss mice
Method: Acute toxicity in the mouse
The acute toxicity of compound No. 6 administered intravenously (I.V.) and orally (P.O.) was determined in female mice of the Swiss strain weighing from 25 to 27 g.
Compound No. 6 was administered in aqueous solution in a concentration of 0.4% intravenously and in a concentration of 1% and 4% orally.

[3] = system: tachycardia produced by isoprenaline stimulation of the sympathicoβ receptors of the heart; experiment: Sympathico-inhibiting activity in the conscious dog (isoprenaline tachycardia); assay type: in vivo, dog (mongrel); conditions: for Effect of isoprenaline after substance injected: 4 mg/kg I.V., 6 dogs, before injection 114 ± 9 (controls), (S) significant to P = 0,05
Method: Sympathico-inhibiting activity in the conscious dog
The dogs used were male and female mongrels weighing from 15 to 20 kg. The animals were not anaesthetised. Their electrocardiograms (D2) and heart rates were measured.
Short bouts of tachycardia, approx. 1 minute long, were produced by intravenously injecting a solution of isoprenaline in doses of 0.25 Y/kg. The injections were repeated every 15 minutes until the increase in heart rate had been reproduced in a satisfactory manner.
Next, the substance under study was intravenously injected and 3 additional measurements of the isoprenaline tachycardia were made 5 minutes, 20 minutes and 35 minutes after the product under study had been administered.

spontaneous heart rate = experiment: Bradycardiac activity on the conscious dog; assay type: in vivo, dog (mongrel); conditions: 4 mg/kg I.V.; for Average heart beat after substance injected: 9 dogs, before injection 132 ± 9, (S) significant to p = 0,05
Method: Bradycardiac activity on the conscious dog
The dogs used were male and female mongrels weighing from 15 to 20 kg. Their bypass electrocardiograms (D2) were recorded and their heart rate (FC) was measured with a cardiotachometer.
The animals were not used to tests and consequently their heart rate was relatively high, 130 beats per minute on average.
3 control measurements of the heart rate were made during the hour before intravenous injection of the substance under study, and 3 further measurements were made 5 minutes, 20 minutes and 35 minutes after administration.

With CCCCc1oc2ccccc2c1C(=O)c1cc(I)c(OCCN(CC)CC)c(I)c1 [Amiodarone (hydrochloride), Amiodarone hydrochloride, reference compound] as the compound, how does the “Average time for arrhythmia to appear, PES (polymorphic extrasystoles)” value (from here on “Average time … (polymorphic extrasystoles)”) ([1]; 4 mg/kg I.V.) read?
The value was 32 ± 3 s.

What about the “Average time for arrhythmia to appear, VT (ventricular tachycardia)” value (shortened to “Average time … (ventricular tachycardia)”) ([1]; 4 mg/kg I.V.) of the same compound?
Its value is 44 ± 6 s.

What about the “Average time for arrhythmia to appear, MTV (multifocal ventricular tachycardia)” value ([1]; 4 mg/kg I.V.) of the same compound?
Its value is 59 ± 5 s.

What about the “Average time for arrhythmia to appear, VTB (ventricular tachycardia bursts)” value (“Average time … (ventricular tachycardia bursts)” below) ([1]; 4 mg/kg I.V.) of the same compound?
Its value is 94 ± 8 s.

With CCCCN(CCCC)CCOc1c(C)cc(C(=O)c2cc(=O)c3ccccc3o2)cc1C [Compound No. 7, 2-[4-(2-N,N-dibutylaminoethoxy) 3,5-dimethylbenzoyl] chromone hydrochloride] as the compound, how does the “Average time … (polymorphic extrasystoles)” value ([1]; 4 mg/kg I.V.) read?
Its value is 36 ± 4 s.

What about the “Average time … (ventricular tachycardia)” value ([1]; 4 mg/kg I.V.) of the same compound?
The value was 55 ± 8 s.

And the “Average time for arrhythmia to appear, MTV (multifocal ventricular tachycardia)” value ([1]; 4 mg/kg I.V.)?
Its value is 77 ± 9 s.

And the “Average time … (ventricular tachycardia bursts)” value ([1]; 4 mg/kg I.V.)?
Its value is 145 ± 10 s.

What about the “Delay of rhythm disorders induced by aconitine” value [1] of the same compound?
Its value is “delay rhythm disorders induced by aconitine to a greater extent than the conventional reference compound, amiodarone”.

Which results are given for CCCCN(CCCC)CCCOc1c(C)cc(C(=O)c2oc3ccccc3c(=O)c2C)cc1C [Compound No. 6, 2-[4-(3-N,N-dibutylaminopropoxy) 3,5-dimethylbenzoyl] 3-methyl chromone hydrochloride]?
Lethal dose ([2]; I.V., aqueous solution 0.4%): ~30 mg/kg; Lethal dose ([2]; P.O., aqueous solution 1% and 4%): ~1200 mg/kg

With CCCCN(CCCC)CCCOc1c(C)cc(C(=O)c2cc(=O)c3ccccc3o2)cc1C [Compound No. 1, 2-[4-(3-N,N-dibutylaminopropoxy) 3,5-dimethylbenzoyl] chromone hydrochloride] as the compound, how does the “Average time … (polymorphic extrasystoles)” value ([1]; 2 mg/kg I.V.) read?
Its value is 63 ± 4 s.

What about the “Average time … (ventricular tachycardia)” value ([1]; 2 mg/kg I.V.) of the same compound?
The value was 79 ± 9 s.

What about the “Average time for arrhythmia to appear, MTV (multifocal ventricular tachycardia)” value ([1]; 2 mg/kg I.V.) of the same compound?
Its value is 94 ± 10 s.

What about the “Average time … (ventricular tachycardia bursts)” value ([1]; 2 mg/kg I.V.) of the same compound?
The value was 139 ± 11 s.

What about the “Delay of rhythm disorders induced by aconitine” value [1] of the same compound?
The value was “delay rhythm disorders induced by aconitine to a greater extent than the conventional reference compound, amiodarone”.

What about the “Effect of isoprenaline after substance injected” value (shortened to “Effect of isoprenaline”) ([3]; 5 min, spread ±12) of the same compound?
The value was 68 beats per minute.

And the “Effect of isoprenaline” value ([3]; 20 min, spread ±10)?
The value was 89 beats per minute.

And the “Effect of isoprenaline” value ([3]; 35 min, spread ±10)?
The value was 97 beats per minute.

What about the Sympathico-inhibiting activity ([3]; isoprenaline tachycardia, conscious dog) of the same compound?
The Sympathico-inhibiting activity was “can moderate tachycardia produced by isoprenaline stimulation”.

And the “Effect on spontaneous heart rate” value (spontaneous heart rate; conscious dog)?
The value was “significantly lowers the spontaneous heart rate”.

And the “Average heart beat after substance injected” value (from here on “Average heart beat”) (spontaneous heart rate; 5 min, spread ±10)?
Its value is 114 beats/min.

And the “Average heart beat” value (spontaneous heart rate; 20 min, spread ±8)?
Its value is 109 beats/min.

What about the “Average heart beat” value (spontaneous heart rate; 35 min, spread ±8) of the same compound?
Its value is 107 beats/min.
